Test results reported in article PMC9542353, “Design and synthesis of some new benzoylthioureido phenyl derivatives targeting carbonic anhydrase enzymes” (Journal of Enzyme Inhibition and Medicinal Chemistry, 2022).

Tests used:
hCA IX = hCA IX (Homo sapiens, UniProt Q16790); test: stopped flow CO2 hydrase assay, hCA IX
Excerpt: (§1) A stopped flow CO2 hydrase assay was adopted using an SX.18 MV-R Applied Photophysics (Oxford, UK) stopped-flow instrument to assess the inhibition against the various CA isozymes[33].

hCA XII = hCA XII (Homo sapiens, UniProt O43570); test: stopped flow CO2 hydrase assay, hCA XII
Excerpt: as §1

hCA I = hCA I (Homo sapiens, UniProt P00915); test: stopped flow CO2 hydrase assay, hCA I; details: for inhibitory activity against hCA I (in words): abstract statement
hCA I, sequence (P00915 whole entry): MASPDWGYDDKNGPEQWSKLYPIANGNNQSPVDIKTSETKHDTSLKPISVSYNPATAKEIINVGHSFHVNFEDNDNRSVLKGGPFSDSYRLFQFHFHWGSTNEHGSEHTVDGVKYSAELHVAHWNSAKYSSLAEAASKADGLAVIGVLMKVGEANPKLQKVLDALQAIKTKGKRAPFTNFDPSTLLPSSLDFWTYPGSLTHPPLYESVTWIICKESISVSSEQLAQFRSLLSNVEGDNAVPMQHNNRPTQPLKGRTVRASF
Excerpt: as §1

hCA II = hCA II (Homo sapiens, UniProt P00918); test: stopped flow CO2 hydrase assay, hCA II
Excerpt: as §1

hCAII = details: read-out: IC50 against hCAII; cited from earlier work

hCA XII, sequence (O43570 25-354): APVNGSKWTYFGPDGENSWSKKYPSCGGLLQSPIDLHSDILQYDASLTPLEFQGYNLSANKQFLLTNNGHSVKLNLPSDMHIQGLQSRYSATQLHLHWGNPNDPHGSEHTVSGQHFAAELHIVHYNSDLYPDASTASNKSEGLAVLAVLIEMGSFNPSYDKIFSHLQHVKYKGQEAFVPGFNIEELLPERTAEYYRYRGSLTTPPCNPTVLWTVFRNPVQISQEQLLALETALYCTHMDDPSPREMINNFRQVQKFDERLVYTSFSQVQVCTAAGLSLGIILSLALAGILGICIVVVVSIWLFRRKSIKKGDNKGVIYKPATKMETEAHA

| SMILES | Ki (hCA IX) [nM] | Ki (hCA XII) [nM] | melting point [°C] | Ki (hCA I) [nM] | inhibitory activity against hCA I (in words) (hCA I) | Ki (hCA II) [nM] | IC50 (hCAII) [nM] |
| --- | --- | --- | --- | --- | --- | --- | --- |
| NS(=O)(=O)c1ccc(NC(=S)NC(=O)c2ccccc2)cc1 [Compound 4a, N-[(4-Sulphamoylphenyl)carbamothioyl]benzamide] | 106 | 57.4 | – | – | – | – | – |
| NS(=O)(=O)c1ccc(NC(=S)NC(=O)c2ccc(Cl)cc2)cc1 [Compound 4b, 4-Chloro-N-[(4-sulfamoylphenyl)carbamothioyl]benzamide] | 115 | > 100000 | 226 to 234 | 58.5 | significant inhibitory activity | 58.1 | – |
| NS(=O)(=O)c1ccc(NC(=S)NC(=O)c2ccc(Cl)c(Cl)c2)cc1 [Compound 4c, 3,4-Dichloro-N-[(4-sulphamoylphenyl)carbamothioyl]benzamide] | > 100000 | 88.1 | 206 to 208 | 40.4 | significant inhibitory activity | 90 | – |
| NS(=O)(=O)c1ccc(NC(=S)NC(=O)c2ccc(Br)cc2)cc1 [Compound 4d, 4-Bromo-N-[(4-sulfamoylphenyl)carbamothioyl]benzamide] | > 100000 | 82 | 215 to 217 | 65 | significant inhibitory activity | 67 | – |
| O=C(O)c1ccc(NC(=S)NC(=O)c2ccccc2)cc1 [Compound 5a, 4-(3-Benzoylthioureido)benzoic acid] | 2930 | > 100000 | 212 to 224 | 1500 | – | 465 | – |
| O=C(O)c1ccc(NC(=S)NC(=O)c2ccc(Cl)cc2)cc1 [Compound 5b, 4-[3-(4-Chlorobenzoyl)thioureido]benzoic acid] | > 100000 | > 100000 | 232 to 240 | 8800 | – | 5540 | – |
| O=C(O)c1ccc(NC(=S)NC(=O)c2ccc(Cl)c(Cl)c2)cc1 [Compound 5c, 4-[3-(3,4-Dichlorobenzoyl)thioureido]benzoic acid] | 1740 | > 100000 | 216 to 218 | > 100000 | – | 6000 | – |
| O=C(O)c1ccc(NC(=S)NC(=O)c2ccc(Br)cc2)cc1 [Compound 5d, 4-[3-(4-Bromobenzoyl)thioureido]benzoic acid] | > 100000 | > 100000 | 206 to 215 | 5560 | significant inhibitory activity | > 100000 | – |
| CCOC(=O)c1ccc(NC(=S)NC(=O)c2ccccc2)cc1 [Compound 6a, Ethyl-4-(3-benzoylthioureido)benzoate] | 1740 | > 100000 | 223 to 235 | > 100000 | – | > 100000 | – |
| CCOC(=O)c1ccc(NC(=S)NC(=O)c2ccc(Cl)cc2)cc1 [Compound 6b, Ethyl 4-[3-(4-chlorobenzoyl)thioureido]benzoate] | 1400 | > 100000 | 219 to 221 | > 100000 | – | > 100000 | – |
| CCOC(=O)c1ccc(NC(=S)NC(=O)c2ccc(Cl)c(Cl)c2)cc1 [Compound 6c, Ethyl 4-[3-(3,4-dichlorobenzoyl)thioureido]benzoate] | 239 | > 100000 | 216 to 218 | 809 | – | > 100000 | – |
| CCOC(=O)c1ccc(NC(=S)NC(=O)c2ccc(Br)cc2)cc1 [Compound 6d, Ethyl-4-[3-(4-bromobenzoyl)thioureido]benzoate] | > 100000 | > 100000 | 218 to 220 | 85.4 | – | 31 | – |
| COc1cc(NC(C)=O)ccc1C(=O)NC(=S)Nc1ccc(S(N)(=O)=O)cc1 [Compound 12a, 4-Acetamido-2-methoxy-N-[(4-sulfamoylphenyl)carbamothioyl]benzamide] | 32.2 | 83 | 225 to 227 | 67.6 | significant inhibitory activity | 15.5 | – |
| COc1cc(NC(=O)C(C)C)ccc1C(=O)NC(=S)Nc1ccc(S(N)(=O)=O)cc1 [Compound 12b, 4-Isobutyramido-2-methoxy-N-[(4-sulfamoylphenyl)carbamothioyl] benzamide] | 1780 | > 100000 | 248 to 250 | > 100000 | – | 2770 | – |
| COc1cc(NC(=O)c2ccc(C)cc2)ccc1C(=O)NC(=S)Nc1ccc(S(N)(=O)=O)cc1 [Compound 12c, 2-Methoxy-4-(4-methylbenzamido)-N-[(4-sulfamoylphenyl)carbamothioyl] benzamide] | 144 | 226 | 250 to 252 | 91 | significant inhibitory activity | 94.2 | – |
| O=C(NC(=S)Nc1ccccc1)c1ccc(C(F)(F)F)cc1 [III] | – | – | – | – | – | – | 2480 |
| COc1ccc(NC(=S)NC(=O)c2ccc(C(F)(F)F)cc2)cc1OC [II] | – | – | – | – | – | – | 1900 |
| CC(=O)NC(=S)Nc1ccc(S(N)(=O)=O)cc1 [IV] | – | – | – | – | – | – | 2140 |

The next lines start with results.

| Ki (hCA IX) [nM] | Ki (hCA XII) [nM] | melting point [°C] | Ki (hCA I) [nM] | inhibitory activity against hCA I (in words) (hCA I) | Ki (hCA II) [nM] | SMILES | IC50 (hCAII) [nM] |
| --- | --- | --- | --- | --- | --- | --- | --- |
| 1090 | > 100000 | 245 to 247 | 1710 | – | 647 | COc1cc(NC(C)=O)ccc1C(=O)NC(=S)Nc1ccc(C(=O)O)cc1 [Compound 13a, 4-[3-(4-Acetamido-2-methoxybenzoyl)thioureido]benzoic acid] | – |
| 289 | > 100000 | 256 to 258 | > 100000 | – | 193 | COc1cc(NC(=O)C(C)C)ccc1C(=O)NC(=S)Nc1ccc(C(=O)O)cc1 [Compound 13b] | – |
| 802 | > 100000 | 281 to 283 | > 100000 | – | 504 | COc1cc(NC(=O)c2ccc(C)cc2)ccc1C(=O)NC(=S)Nc1ccc(C(=O)O)cc1 [Compound 13c, 4-(3-(2-Methoxy-4-(4-methylbenzamido)benzoyl)thioureido]benzoic acid] | – |
| 1150 | > 100000 | 237 to 239 | > 100000 | – | > 100000 | CCOC(=O)c1ccc(NC(=S)NC(=O)c2ccc(NC(C)=O)cc2OC)cc1 [Compound 14a, Ethyl-4-[3-(4-acetamido-2-methoxybenzoyl)thioureido]benzoate] | – |
| 1500 | > 100000 | 245 to 247 | > 100000 | – | > 100000 | CCOC(=O)c1ccc(NC(=S)NC(=O)c2ccc(NC(=O)C(C)C)cc2OC)cc1 [Compound 14b, Ethyl-4-[3-(4-isobutyramido-2-methoxybenzoyl)thioureido]benzoate] | – |
| 1370 | > 100000 | 257 to 259 | > 100000 | – | 2020 | CCOC(=O)c1ccc(NC(=S)NC(=O)c2ccc(NC(=O)c3ccc(C)cc3)cc2OC)cc1 [Compound 14c, Ethyl-4-[3-(2-methoxy-4-(4-methylbenzamido)benzoyl)thioureido]benzoate] | – |
